Source: the NIST ThermoML archive (doi:10.1016/j.jct.2011.10.027)

Assay: xn = mol fraction of the nth substance listed
Settings: 101 kPa, Liquid, Vibrating tube method

CCCCN(CCCC)CCCC [tributylamine] + Cc1ccccc1C
mass density [kg/m3]
Settings	293.15 K	298.15 K	303.15 K	313.15 K	323.15 K	333.15 K
x1 = 0.0762	865.26	861.1	856.94	848.59	840.19	831.72
x1 = 0.1611	851.26	847.17	843.07	834.83	826.55	818.19
x1 = 0.2324	840.99	836.94	832.88	824.73	816.54	808.28
x1 = 0.3142	830.6	826.6	822.59	814.54	806.44	798.29
x1 = 0.3986	821.15	817.19	813.22	805.26	797.25	789.19
x1 = 0.481	812.95	809.03	805.1	797.21	789.28	781.29
x1 = 0.5686	805.17	801.29	797.4	789.61	781.76	773.87
x1 = 0.6368	799.67	795.83	791.97	784.23	776.45	768.61
x1 = 0.7145	793.98	790.16	786.34	778.66	770.94	763.17
x1 = 0.769	790.27	786.47	782.67	775.03	767.36	759.64
x1 = 0.8741	783.74	779.98	776.21	768.65	761.06	753.41
x1 = 0.9545	779.3	775.56	771.81	764.3	756.75	749.14
